# Where “and” joins values, the source holds several entries; their conditions need not be identical. Identical values can stand only once. Non-standard residues stand in square brackets, D forms with d. Residues, ends and D or L forms follow the SMILES beside them. Nva = CCC[C@H](N)C(=O)O
# How the values were obtained:
# [1] = system: AdipoR1 and AdipoR2 on HepG2 and LX2 cells; assay: Cell confocal imaging, receptor binding of FITC labeled peptide (with AdipoR siRNA); set-up: species or system human; settings: 37 °C, 2 or 4 h, AdipoR1/AdipoR2 siRNA as control, in words
# Procedure: For in vitro receptor binding assay, 4E4 HepG2 cells or 2E4 LX2 cells were seeded on 35 mm glass bottom dish with 150 μL complete medium. Then cells were incubated with FITC labeled peptide for 4 h. The nuclei were stained with Hoechst 33342 (ThermoFisher, Scientific, USA). After washing with PBS, cells were visualized in a laser confocal microscope (Olympus FV3000, Japan). Cells with suppressed AdipoR1 and AdipoR2 expression with each specific siRNA were used as negative control.
# (§1) AdipoR1 and AdipoR2 siRNA as well as mock siRNA were chemically synthesized (GenePharma, China) and transfected into 60–70% confluent HepG2 and LX2 cells using Lipofectamine 3000 (ThermoFisher Scientific, USA). Dilution of siRNA and Lipofectamine 3000 reagents as well as the transfection of cells were performed following the manufacturer’s protocol. For HepG2 cell model, 5E5 cells were plated in 6-well plates and transfected with 5 μL of 20 μM stock siRNA. At 48 h following transfection, the cells were processed for 0.25 mM PA and/or 200 μM JT003 treated for another 24 h. BSA was used as the negative control. For LX2 cell model, 2E5 cells were plated in 6-well plates and transfected with 5 μL of 20 μM stock siRNA. At 48 h following transfection, the cells were processed for JT003 or PBS treated for another 48 h. Next, cells were harvested for either western blot or qPCR assay.
# [2] = system: HFD induced NASH mice; assay: HFD mice: fasting blood glucose, fasting insulin and adiponectin (ELISA); assay type: in vivo, mouse; settings: JT003 500 μg kg−1 i.p. daily 4 weeks, in words
# Procedure: The NASH model was conducted with feeding a HFD for 16 weeks combine with a MCD diet (Methionine/Choline Deficient Diet, Medicience, China) in the last 4 weeks. Mice administered a MCS diet (Methionine/Choline Sufficient Diet, Medicience, China) serves as control group. NAFLD or NASH mice treated with JT003 for 4 weeks were used to evaluate the pharmacological effects (n = 6; 500 μg kg^−1; daily intraperitoneal injection). Food and water were provided ad libitum. The body weight of mice was examined every 3 days. The diet was renewed every 7 days. JT003 was diluted in PBS.
# Fasting blood glucose was measured using OneTouch UltraVue Blood Glucose Meter and test strips (Johnson&Johnson, USA) from tail nicks. After HFD fed for 14 weeks and JT003 treated for 2 weeks, oral glucose tolerance tests were performed on 8 h fasted mice. 0.5 g ml^−1 D-glucose solution (Sigma-Aldrich, USA) were oral injected to mice (2 g kg^−1 of bodyweight), blood glucose level was recorded at baseline, 15, 30, 60, 120 min
# The levels of ALT, AST, TC and TG in serum were determined using certain commercial assay kits (Nanjing Jiancheng Bioengineering Institute, China). Fasting adiponectin and insulin were quantified in plasma samples using corresponding commercially available Elisa kits (Cloud-Clone Crop, USA).
# [3] = system: liver protein expression of CCl4 induced liver fibrosis mice; assay: CCl4 mice: liver western blot; assay type: in vivo, mouse
# Procedure: Male mice liver fibrosis was induced by intraperitoneal injection of 20% CCl4 (Sigma, USA) diluted in corn oil (Aladdin, China) every 3 days for 6 weeks (n = 6; 5 ml kg^−1 body weight). Mice injected with equivalent volume of corn oil serves as control group (n = 6). Liver fibrosis mice treated with JT003 for 3 weeks were used to evaluated the pharmacological effects (n = 6; 500 μg kg^−1; daily intraperitoneal injection).
# Total protein was isolated from cells or liver samples using RIPA lysis buffer (50.0 mM Tris-HCl (pH = 8.0), 150.0 mM NaCl, 0.02% NaN3, 0.1% SDS, 1% NP-40, 0.5% deoxysodium cholate, 1 mM EDTA, […]). The protein concentration was quantified with BCA kit (Pierce, ThermoFisher Scientific, USA). Thirty micrograms protein were separated by 10 or 12% sodium dodecyl sulfate-polyacrylamide gel electrophoresis depending on the band of target protein, then transferred onto equilibrated polyvinylidene difluoride membrane (PVDF, Immobilon®-PSQ transfer membranes, Merck Millipore, Germany). Membranes were incubated with primary antibodies overnight at 4 °C. Specific antibodies were listed in Supplementary Table 3. After incubation with the secondary antibody, proteins were detected by enhanced chemiluminescence (Glarity^TM Western ECL Substrate, Bio-Rad, USA) and the signals were recorded and quantified with Tanon-Image Software (Shanghai, China). Reference antibody GAPDH were used for data normalization.
# [4] = system: AdipoR1 and AdipoR2 in HepG2 cells; assay: RNA interference (AdipoR1/AdipoR2 siRNA) in PA induced HepG2: PPARα, PPARγ mRNA and protein; assay type: cell-based, human; settings: PA induced HepG2, 200 μM JT003; in words
# Procedure: as §1, with “For LX2 cell model, 2E5 cells were plated in 6-well plates and transfected with 5 μL of 20 μM stock siRNA. At 48 h following transfection, the cells were processed for JT003 or PBS treated for another 48 h. Next, cells were harvested for either western blot or qPCR assay.” left out
# Liver total RNA was extracted by using Trizol reagent following the manufacture’s instruction (TransGen Biotech, China). The concentration of RNA was measured by Nanodrop 2000 (ThermoFisher Scientific, USA). cDNA was transcribed from 10ug total RNA with First Strand cDNA synthesis Super Mix (TransGen Biotech, China). […] Reference gene β-actin was used for data normalization. mRNA expression was analyzed with specific primers listed in Supplementary Table 2.
# Total protein was isolated from cells or liver samples using RIPA lysis buffer (50.0 mM Tris-HCl (pH = 8.0), 150.0 mM NaCl, 0.02% NaN3, 0.1% SDS, 1% NP-40, 0.5% deoxysodium cholate, 1 mM EDTA, […]). The protein concentration was quantified with BCA kit (Pierce, ThermoFisher Scientific, USA). […]
# [5] = Pharmacokinetic assay in SD rats; assay type: in vivo, rat
# Procedure: Male SpragueDawley (SD) rats were randomly divided into two groups (n = 3 per group) and received a single intravenous dose of JT003 (0.5 mg/kg) or ADP355 (1.0 mg kg^−1) respectively. Blood samples were collected at 5, 15, 30, 45 min and 1, 2, 3 h following the injection, and then were immediately centrifuged (4000g, 10 min, 4 °C) to obtain plasma samples. Plasma concentrations of the two peptides were measured by LC-MS/MS (ThermoFisher Scientific, USA). Pharmacokinetic parameters of JT003 and ADP355 were calculated using non-compartmental analysis in Phoenix WinNonlin (version 8.0, Pharsight, USA). The concentration values less than the LLOQ were set to zero for the analysis.
# [6] = Figure 7e, liver western blot, CCl4 + JT003 group, single replicates, n = 4
# [7] = Figure 7f, liver western blot, CCl4 + JT003 group, single replicates, n = 4
# [8] = Sprague-Dawley, rat, male SD rats, single iv dose: JT003 0.5 mg/kg, ADP355 1.0 mg/kg, plasma, LC-MS/MS, non-compartmental, Mean ± SD, n = 3-6
structure (smiles),measurement,setting,value
CCC[C@H](NC(=O)[C@@H]1CCCN1)C(=O)N[C@@H](CC(C)C)C(=O)N[C@@H](Cc1ccc(O)cc1)C(=O)N[C@@H](Cc1ccc(O)cc1)C(=O)N[C@@H](Cc1ccccc1)C(=O)N[C@@H](C)C(N)=O [JT003] (H-P[Nva]LYYFA-NH2),"binding to AdipoRs on the cell membrane (confocal, FITC)",[1],could specifically bind to AdipoR1 and/or AdipoR2 on the cell membrane
same,HFD-induced increasing of fasting blood glucose and fasting serum insulin levels,[2],decreased
same,decrease in circulating adiponectin in the HFD group,[2],reverted remarkably
same,NFκB (western blotting),"[3]; CCl4 fibrosis mice, liver, JT003 500 μg kg−1, in words",significantly downregulated
same,"phosphorylation levels of JNK, eIF2α and PERK","[3]; CCl4 induced fibrosis mice, liver, JT003 500 μg kg−1, in words",decreased phosphorylation levels
same,"αSMA and COL1α1 (western blot, liver)","[3]; CCl4 mice, JT003 500 μg kg−1, in words",significant downregulation
same,pJNK/JNK,[3]; [6],0.7206 and 0.4902 and 0.6285 and 0.438
same,pPERK/PERK,[3]; [6],0.5616 and 0.9445 and 0.6641 and 0.5949
same,peIF2a/eIF2a,[3]; [6],1.116 and 0.4247 and 0.9192 and 0.3729
same,CYP2E1/GAPDH,[3]; [7],1.469 and 1.0581 and 1.298 and 1.11
same,PGC1a/GAPDH,[3]; [7],2.2635 and 2.209 and 2.565 and 2.497
same,anti-PP65 / anti-P65 western blot quantification,"[3]; Figure 6d, liver, CCl4 + JT003 group, single replicates, n = 4",0.3517 and 0.3717 and 0.2194 and 0.5295
same,effect of AdipoR1 and/or AdipoR2 siRNA on JT003 mediated PPARα and PPARγ expression,[4],blocked the JT003 effects on mediating PPARα and PPARγ expression
same,AUC(0-inf),[5]; [8],20.9 ± 1.63 ng·h/mL
same,AUC(0-t),[5]; [8],19.4 ± 1.51 ng·h/mL
same,MRT,[5]; [8],62.4 ± 1.8 min
same,clearance,[5]; [8],401 mL/min/kg
same,Vd,"[5]; Sprague-Dawley, rat, male SD rats, single iv dose: JT003 0.5 mg/kg, ADP355 1.0 mg/kg, plasma, LC-MS/MS, non-compartmental, Mean ± SD, n = 3-6, read-out: V",26 ± 2.29 L/kg
same,t1/2,"[5]; male SD rats, single iv dose: JT003 0.5 mg/kg, ADP355 1.0 mg/kg, plasma, LC-MS/MS, non-compartmental, Mean ± SD, n = 3-6 (n = 3 per group)",45 ± 0.6 min and 45 min
same,improved circulating half-life vs the predecessor compound (ADP355),[5]; reviewer's reading of the PK experiment,7-8 fold

# From PMC7669869, “AdipoR1/AdipoR2 dual agonist recovers nonalcoholic steatohepatitis and related fibrosis via endoplasmic reticulum-mitochondria axis” (Nature Communications, 2020)
